Key:
[1] = target: T1, Poly [ADP-ribose] polymerase 1 (Homo sapiens, UniProt P09874); assay: Inhibition of PARP-1 (unknown origin)
[2] = target: T1, Poly [ADP-ribose] polymerase 1; assay: Inhibition of PARP-1 (unknown origin) binding to DNA assessed as DNA trapping activity
DLD-1 [3] = assay: Antiproliferative activity against human DLD-1 cells harbouring BRCA-2 mutant assessed as inhibition of cell growth; format: functional, cell-based
DLD-1 [4] = assay: Antiproliferative activity against human DLD-1 cells harbouring wild type BRCA assessed as inhibition of cell growth; format: functional, cell-based
[5] = target: T2, Poly [ADP-ribose] polymerase 2 (Homo sapiens, UniProt Q9UGN5); assay: Inhibition of PARP-2 (unknown origin) binding to DNA assessed as DNA trapping activity
T2 sequence (Q9UGN5 whole entry): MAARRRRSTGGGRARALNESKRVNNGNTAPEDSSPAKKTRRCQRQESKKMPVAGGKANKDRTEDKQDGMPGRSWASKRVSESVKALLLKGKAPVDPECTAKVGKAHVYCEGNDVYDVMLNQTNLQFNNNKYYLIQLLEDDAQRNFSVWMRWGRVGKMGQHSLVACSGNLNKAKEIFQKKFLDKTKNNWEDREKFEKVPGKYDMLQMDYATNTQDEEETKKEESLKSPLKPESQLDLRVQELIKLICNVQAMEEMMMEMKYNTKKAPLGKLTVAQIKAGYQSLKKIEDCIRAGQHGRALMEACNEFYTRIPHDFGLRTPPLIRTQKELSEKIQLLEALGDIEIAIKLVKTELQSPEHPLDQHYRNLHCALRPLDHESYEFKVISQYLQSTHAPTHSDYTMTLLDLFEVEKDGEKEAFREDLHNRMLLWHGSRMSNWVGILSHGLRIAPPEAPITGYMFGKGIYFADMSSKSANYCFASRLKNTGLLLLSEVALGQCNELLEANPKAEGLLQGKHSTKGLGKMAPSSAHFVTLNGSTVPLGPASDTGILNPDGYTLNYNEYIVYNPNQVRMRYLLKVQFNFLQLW

[6] = target: T2, Poly [ADP-ribose] polymerase 2; assay: Inhibition of PARP-2 (unknown origin)

T1 sequence (P09874 whole entry): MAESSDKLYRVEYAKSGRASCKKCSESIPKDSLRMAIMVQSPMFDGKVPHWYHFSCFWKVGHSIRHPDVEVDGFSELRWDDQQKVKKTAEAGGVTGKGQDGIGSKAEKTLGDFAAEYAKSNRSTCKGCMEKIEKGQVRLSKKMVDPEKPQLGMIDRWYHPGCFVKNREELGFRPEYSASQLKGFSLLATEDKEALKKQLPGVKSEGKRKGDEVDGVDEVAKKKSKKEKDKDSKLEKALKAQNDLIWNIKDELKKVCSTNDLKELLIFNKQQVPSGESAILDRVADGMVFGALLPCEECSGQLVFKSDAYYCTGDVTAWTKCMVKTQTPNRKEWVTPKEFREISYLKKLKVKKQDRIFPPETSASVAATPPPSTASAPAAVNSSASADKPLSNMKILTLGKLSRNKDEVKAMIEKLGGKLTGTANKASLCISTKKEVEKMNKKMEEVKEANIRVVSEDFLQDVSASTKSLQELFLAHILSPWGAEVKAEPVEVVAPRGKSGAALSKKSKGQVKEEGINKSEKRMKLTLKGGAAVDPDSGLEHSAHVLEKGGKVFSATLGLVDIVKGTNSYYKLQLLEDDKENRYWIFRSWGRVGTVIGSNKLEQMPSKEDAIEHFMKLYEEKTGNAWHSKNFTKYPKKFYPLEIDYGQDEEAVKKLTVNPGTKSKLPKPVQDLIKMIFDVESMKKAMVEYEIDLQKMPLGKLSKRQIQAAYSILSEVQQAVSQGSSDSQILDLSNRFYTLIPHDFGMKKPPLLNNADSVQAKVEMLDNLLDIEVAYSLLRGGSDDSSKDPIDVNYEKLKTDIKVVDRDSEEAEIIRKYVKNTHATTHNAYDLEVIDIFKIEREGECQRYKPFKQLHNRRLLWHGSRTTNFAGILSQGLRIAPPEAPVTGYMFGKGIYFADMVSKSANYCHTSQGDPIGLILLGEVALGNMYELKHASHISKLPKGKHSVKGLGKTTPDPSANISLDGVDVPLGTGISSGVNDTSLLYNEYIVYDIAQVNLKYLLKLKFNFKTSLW

IC50 [1] [nM] | IC50 [2] [nM] | IC50 (DLD-1 [3]) [nM] | IC50 (DLD-1 [4]) [µM] | IC50 [5] [nM] | IC50 [6] [nM] | Structure (SMILES)
0.4 | 11.2 | 10.8 | 33 | 1160 | 41.5 | CCc1cc2ncc(CN3CCc4cc(/C=C/C(=O)NC)ccc4C3)cc2[nH]c1=O
14 | 1570 |  |  | 2980 | 151 | CCc1cc2ncc(CN3CCN(c4cc5cccc(C(=O)NC)c5cn4)CC3)cc2[nH]c1=O
5.4 | 727 |  |  | 167 | 38 | CCc1cc2ncc(CN3CCN(c4cc5c(cn4)NC(=O)CC5)CC3)cc2[nH]c1=O
2.6 | 4.76 | 25.6 | 89.2 | 12000 | 192 | CCc1cc2ncc(CN3CC(Nc4ccc(C(=O)NC)nc4)C3)cc2[nH]c1=O
40 | > 2500 |  |  | 37700 | 340 | CCc1cc2ncc(CN3C[C@@H]4C[C@H]3CN4c3ccc(C(=O)NC)nc3)cc2[nH]c1=O
75 | > 2500 |  |  | 2040 | 20 | CCc1cc2ncc(CN3CCn4c(cnc4C(=O)NC)C3)cc2[nH]c1=O
0.63 | 3.58 | 161 | 8.7 | 1560 | 982 | CCc1cc2ncc(CN3CCN(c4ccc(C(=O)NC)c5nccn45)CC3)cc2[nH]c1=O
1.3 | 64 |  |  | 114 | 21 | CCc1cc2ncc(CN3CCN(c4ccc5cc[nH]c5n4)CC3)cc2[nH]c1=O
 |  | 0.915 | 12.1 |  |  | CCc1cc2ncc(CN3CCN(c4ccc(C(=O)NC)nc4)CC3)cc2[nH]c1=O [SARUPARIB]
2.6 | 244 |  |  | 1400 | 60 | CCc1cc2ncc(CN3CCN(c4ccc5nc(C(F)(F)F)[nH]c5n4)CC3)cc2[nH]c1=O
 | > 2500 |  |  | 11800 |  | CCc1cc2ncc(CN3CCN(c4ccc(C(N)C(F)(F)F)nc4)CC3)cc2[nH]c1=O (stereo not drawn)
0.94 | 1.61 | 43.8 | 102 | 9440 | 68 | CCc1cc2ncc(CN3CCC(Nc4ccc(C(=O)NC)nc4)C3)cc2[nH]c1=O (stereo not drawn)
0.41 | 4.78 | 395 | 15.7 |  |  | CCc1cc2ncc(CN3CCN(c4ccc5cn[nH]c5n4)CC3)cc2[nH]c1=O
33 | 1460 | > 2500 | 77.1 | 4170 | 137 | CCc1cc2ncc(CN3CC[C@H](Nc4ccc(C(=O)NC)nc4)C3)cc2[nH]c1=O
397 | > 2500 |  |  | 14000 | 450 | CCc1cc2ncc(CN3CCN(c4ccc(C(C)(C)O)nc4)CC3)cc2[nH]c1=O
 |  | 172 | 23.3 |  |  | O=C(c1cc(Cc2n[nH]c(=O)c3ccccc23)ccc1F)N1CCN(C(=O)C2CC2)CC1 [OLAPARIB]
0.78 | 380 |  |  | 1170 | 23 | CCc1cc2ncc(CN3CCN(c4ccc5[nH]ncc5n4)CC3)cc2[nH]c1=O
12 | 158 |  |  |  |  | CCc1cc2ncc(CN3CC4(CCN(c5ccc(C(=O)NC)nc5)CC4)C3)cc2[nH]c1=O
1 | 4.51 | 66 | 15.2 | 6300 | 154 | CCc1cc2ncc(CN3CCN(c4ccc(OC(F)F)nc4)CC3)cc2[nH]c1=O
3.4 | 259 |  |  | 3050 | 40 | CCc1cc2ncc(CN3CCC(Nc4ccc(C(=O)NC)nc4)CC3)cc2[nH]c1=O
0.9 | 231 |  |  | 210 | 5.2 | CCc1cc2ncc(CN3CCN(c4cnc5cn[nH]c5c4)CC3)cc2[nH]c1=O
2 | 10.4 |  |  | 994 | 87 | CCc1cc2ncc(CN3CCN(c4ccc5oc(=O)[nH]c5c4)CC3)cc2[nH]c1=O
0.49 | 1.85 | 4.82 | 43.8 | 3010 | 133 | CCc1cc2ncc(CN3CC[C@@H](Nc4ccc(C(=O)NC)nc4)C3)cc2[nH]c1=O
0.34 | 8.14 | 46.8 | 2.98 | 678 | 18 | CCc1cc2ncc(CN3CC4CN(c5ccc(C(=O)NC)nc5)CC4C3)cc2[nH]c1=O (stereo not drawn)
348 | > 2500 |  |  | 4040 | 485 | CCc1cc2ncc(CN3CCc4nc(C(=O)NC)ccc4C3)cc2[nH]c1=O
0.59 | 2.97 | 164 | 28.1 | 839 | 9 | CCc1cc2ncc(CN3CC4(C3)CN(c3ccc(C(=O)NC)nc3)C4)cc2[nH]c1=O

Structure (SMILES) | IC50 [1] [nM] | IC50 [2] [nM] | IC50 (DLD-1 [3]) [nM] | IC50 (DLD-1 [4]) [µM] | IC50 [5] [nM] | IC50 [6] [nM]
CCc1cc2ncc(CN3CC4CC(C3)N4c3ccc(C(=O)NC)nc3)cc2[nH]c1=O | > 2500 | > 2500 |  |  |  | 
CCc1cc2ncc(CN3CC4CCC(C3)N4c3ccc(C(=O)NC)nc3)cc2[nH]c1=O | 41 | > 2500 |  |  |  | 

From ChEMBL document CHEMBL5150037, “Synthesis and in vitro biological evaluation of 3-ethyl-1,5-naphthyridin-2(1H)-one derivatives as potent PARP-1 selective inhibitors and PARP-1 DNA trappers” (Bioorg Med Chem Lett, 2022)
